Reference: patent US20070037887A1, “Blockade of mtor to prevent a hormonal adaptive response” (University of Virginia Patent Foundation, priority 2003, published 2007)

Legend:
MCF-7 cells = assay: Apoptosis ELISA (Cell Death Detection Kit), MCF-7 cells; assay type: cell-based, human; details: three day treatment
Experimental: FIG. 6 is a bar graph portraying data representing the induction of apoptosis in MCF-7 and LTED cells by FTS. Eighty thousand MCF-7 and LTED cells were plated into each well of 12-well plates in their culture media. Two days later, the cells were treated with FTS for 3 days. Apoptosis was measured using a Cell Death Detection Kit from Roche Molecular Biochemicals. Parallel plates subjected to identical treatment were prepared for cell counting. The results were expressed as the values of optical density at 405 nm per 10,000 cells.
Applicants postulated that these cells might also have become sensitized to the pro-apoptotic effects of estradiol. To test this hypothesis, an ELISA assay was used to assess apoptosis and to compare the effects of estradiol in wild-type and LTED cells. […] The presence of apoptosis in LTED cells was confirmed by the measurement of annexin V and the use of time-lapse microscopy.
The effect of a three day treatment with FTS on apoptosis in MCF-7 and LTED cells was examined using the ELISA assay for quantitation. […] LTED cells were much more sensitive than MCF-7 cells to the apoptotic effects of FTS.

mTOR-raptor complex = system: T1, mTOR-raptor complex; assay: Coimmunoprecipitation of raptor with mTOR, compound added to cell extracts or immune complexes; assay type: binding; details: extracts of nontransfected cells
T1 construct: rows headed: amount of endogenous raptor that coimmunoprecipitated with mTOR; other: extracts of nontransfected cells
Experimental: 293T cells were transfected with pcDNA3 alone (Vec.) or with a combination of pcDNA3AU1-mTOR, pcDNA33HA-Raptor, and pcDNA33HA-mLST8. Extracts of the cells were incubated with increasing concentrations of FTS before AU1-mTOR was immunoprecipated. Samples of the immune complexes were incubated with [γ-^32P]ATP and recombinant [His^6]PHAS-I, then subjected to SDS-PAGE and transferred to an immobilon membrane. After obtaining a phosphorimage of the membrane to detect ^32P-PHAS-I, the membrane was immunoblotted with PThr^36/45 antibodies. Other samples of the immune complexes were subjected to SDS-PAGE and immunoblots were prepared with antibodies to the HA epitope or to mTOR (see FIG. 13A). Extracts of nontransfected 293T cells were incubated with increasing concentrations of FTS before mTOR was immunoprecipated with mTAb1. A control immunoprecipitation was conducted using nonimmune IgG (NI). Immune complexes were subjected to SDS-PAGE and immunoblots were prepared with antibodies to mLST8, mTOR, and raptor.
Samples of extracts from 293T cells overexpressing AU1-mTOR, HA-raptor, and HA-mLST8 were incubated for 1 h with increasing concentrations of FTS (●, ▴, ▪) or GTS (∘, Δ, □) before immunoprecipitations were conducted with anti-AU1 antibodies. mTOR kinase activity (●, ∘) was determined by measuring ^32P incorporation into [His^6]PHAS-I in immune complex kinases assays performed with [γ-^32P]ATP (see FIG. 14A). The relative amounts of HA-raptor (▴, Δ) and HA-mLST8 (▪, □) that coimmunoprecipitated with AU1-mTOR were determined after immunoblotting with anti-HA antibodies (see FIG. 14B). The results (mean values+S.E. from 5 experiments) are expressed as percentages of the mTOR activity (FIG. 14A) or coimmunoprecipitating proteins (FIG. 14B) from samples incubated without FTS or GTS, and have been corrected for the amounts of AU1-mTOR immunoprecipitated.
293T cells were transfected with pcDNA3 alone (Vec.) or with a combination of pcDNA3AU1-mTOR, pcDNA33HARaptor, and pcDNA33HA-mLST8. AU1-mTOR was immunoprecipitated and samples of the washed immune complexes were at incubated […] for 30 min with no inhibitors or with the following: caffeine (1 mM), FTS (50 μM), LY294002 (10 μM), rapamycin (1 μM) plus FKBP12 (10 μM), and 1 μM wortmannin. To prevent destruction of wortmannin, incubations were conducted in the absence of thiol reducing agents. Samples of the immune complexes were incubated for 10 min with 10 mM MnCl2, 1 mM [γ-^32P]ATP, and 50 μg/ml [His^6]PHAS-I to assess mTOR activity. Other samples were rinsed twice, subjected to SDS-PAGE, and immunoblotted with anti-HA and anti-AU1 antibodies to determine the amounts of HA-raptor and HA-mLST8 associated with AU1-mTOR. The relative amounts of ^32P incorporated into PHAS-I were determined by phosphorimaging (see FIG. 15B).

PHAS-I = PHAS-I phosphorylation in 293T cells (SDS-PAGE mobility, PThr36/45 immunoblot); assay type: cell-based; details: increasing concentrations, 1 h
Experimental: FIG. 11A & 11B represent data showing FTS inhibits PHAS-I phosphorylation and promotes dissociation of the mTOR-raptor complex in 293T cells. 293T cells were transfected with pcDNA3AU1-mTOR, pcDNA33HARaptor, pcDNA33HA-mLST8, and pCMV-Tag3APHAS-I (FIG. 11A). After 18 h the cells were incubated for 1 h with increasing concentrations of FTS before extracts were prepared. A sample of each extract was subjected to SDS-PAGE and immunoblotted to detect PHAS-I or PThr^36/45. AU1-mTOR was also immunoprecipitated from each extract, and immune complexes were subjected to SDSPAGE and immunoblotted with mTAb2, to detect mTOR, and with anti-HA antibodies, to detect HA-mLST8 and HA-raptor. Nontransfected 293T cells were incubated with increasing concentrations of FTS for 1 h before extracts were prepared. mTOR was immunoprecipitated with mTAb1, and samples were subjected to SDS-PAGE.
To investigate the effects of FTS on mTOR function in 293T cells, changes in the phosphorylation of PHAS-I, a well characterized target of mTOR were monitored. Phosphorylation of Ser64 and Thr69 in PHAS-I causes a dramatic decrease in the mobility of the protein in SDS-PAGE, so that changes in the mobility provide an index of changes in phosphorylation state. […]

CC(C)=CCC/C(C)=C/CC/C(C)=C/CSc1ccccc1C(=O)O [FTS, farnesylthiosalicylic acid]
induction of apoptosis (MCF-7 cells; FTS 75 μM): dramatic increase in apoptosis | induction of apoptosis (MCF-7 cells; FTS 20 and 50 μM): did not induce apoptosis | amount of endogenous raptor that coimmunoprecipitated with mTOR (mTOR-raptor complex): decreased | phosphorylation of PHAS-I (electrophoretic mobility) (PHAS-I): decreased the phosphorylation | reactivity of PHAS-I with PThr36/45 phosphospecific antibodies (PHAS-I): markedly decreased
